Results taken from patent US11242327B2, “Analgesic compounds” (RECURIUM IP HOLDINGS, LLC, priority 2017, dated 2022).

Key:
male Sprague-Dawley rats = test: Post-Incisional (Brennan) Pain Test; format: in vivo; settings: rat, oral; for cumulative pain score, 4 h: 4 h post-dosing; for cumulative pain score, 24 h: 24 h post-dosing
Experimental: Incisional pain was induced in non-fasted male Sprague-Dawley rats weighing 180-300 g by making a 1-cm plantar incision in the left hind paw and is designed to mimic pain and sensitivity similar to what is reported by patients after surgery. Dosing occurred at the time of incision and spontaneous pain was measured 4 and 24 hours post-dosing using a cumulative pain score. The unrestrained animals were placed on a metal mesh platform and allowed to acclimate for about 15 min/ Each animal was closely observed during a 1-min period repeated every 5 min for 1 h (12 times total). Depending on the position in which the foot was found during the scoring period, a score of 0, 1, or 2 was given. Full weight bearing of the foot (score=0) was present if the skin on the plantar surface of the paw wound was blanched or distorted by the mesh. If the foot was completely off the mesh, or one or more instances of licking or flinching was observed, a score of 2 was recorded and the licking or flinching was noted but not counted. If the plantar surface of the paw touched the mesh without blanching or distorting, a score of 1 was given. The sum of the 12 scores obtained during the 1 h session was calculated (maximum score=24) for each animal. Observations were made during hours 4 and 24. Test articles were administered orally at concentrations of 10, 30 or 100 mg/kg and ketoprofen was administered subcutaneously at a concentration of 10 mg/kg. The control group received the vehicle (sterile water). In Table 6, ‘A’ designates a cumulative pain score of ≤11, ‘B’ designates >11 and ≤16, and ‘C’ designates >16.
The results provided in Table 6 are for oral administration in rats.

COX-2 = biological target: T1, COX-2 (Homo sapiens, UniProt P35354); test: NSAIDS and Opioid Receptor Test: COX-2; format: biochemical; settings: 200 μM
T1 sequence (P35354 18-604): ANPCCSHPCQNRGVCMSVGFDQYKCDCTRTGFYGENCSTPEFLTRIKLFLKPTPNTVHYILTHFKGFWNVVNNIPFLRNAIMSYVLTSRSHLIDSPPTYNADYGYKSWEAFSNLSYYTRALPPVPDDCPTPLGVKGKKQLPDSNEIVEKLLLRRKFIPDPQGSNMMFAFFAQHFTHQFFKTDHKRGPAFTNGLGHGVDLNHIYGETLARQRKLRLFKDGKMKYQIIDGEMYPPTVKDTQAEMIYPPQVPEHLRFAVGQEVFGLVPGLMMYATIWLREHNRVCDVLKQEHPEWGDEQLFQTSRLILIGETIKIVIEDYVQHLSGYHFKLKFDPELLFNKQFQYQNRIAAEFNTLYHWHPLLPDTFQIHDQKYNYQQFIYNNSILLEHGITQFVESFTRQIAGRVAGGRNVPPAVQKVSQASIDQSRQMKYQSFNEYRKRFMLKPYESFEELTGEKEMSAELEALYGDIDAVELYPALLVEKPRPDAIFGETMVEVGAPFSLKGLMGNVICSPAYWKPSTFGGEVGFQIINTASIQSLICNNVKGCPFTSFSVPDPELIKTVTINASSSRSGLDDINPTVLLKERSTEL
Experimental: Compounds were screened as DMSO solutions at 10 μM, 100 μM, or 200 μM and values represent percent inhibition of control-specific binding. […] As NSAID and opioid mechanisms of action are precluded, a person of ordinary skill in the art understands that undesirable side effects associated with inhibition of COX receptors in NSAIDs and activation of opiate receptors in opioids can be avoided by compounds described herein. Furthermore, opioids are known to lose their analgesic potency after to continued administration. (See Benyamin, et al. “Opioid Complications and Side Effects” Pain Physician 11 (2008): S105-S120). As the data indicates compounds described herein have a different mechanism action compared to opioids, a person of ordinary skill in the art would appreciate that compounds described herein would not be expected to lose their analgesic potency like opioids after continued admininistration.

adult male C57BL/6 mice = test: Conditioned Place Preference (Abuse) Test; format: in vivo, mouse; settings: mouse, in vivo, ip
Excerpt: A conditioned place preference (CPP) model was used to assess the reward properties of compounds of formulae (Ie), or a pharmaceutically acceptable salt of any of the foregoing, in adult male C57BL/6 mice. The CPP model apparatus consisted of a Plexiglas© test unit having three (A, B, C) compartments (9 cm×9 cm×16 cm) configured to allow access to all chambers. Compartments A and C had textually distinct flooring and wall marking. Mice were placed in the middle compartment with free access to the other compartments. On day 1 and 2, the “naive chamber preference” was assessed by placing the animal in the middle chamber twice a day (AM and PM) for 30 min on two consecutive days, with the chamber showing the greatest residence time being called the “preferred chamber”. On “drug pairing days” (days 5, 6, 7 and 8) mice were injected IP with vehicle (50 mM citric acid) in the AM in the preferred chamber and the drug/vehicle in the afternoon in the non-preferred chamber for four consecutive days. On the morning of day 9 (the day after the last drug pairing), the “drug chamber preference” was assessed by placing the mouse (absent any injection) in the middle chamber, with free access to all chambers for 30 minutes. This was repeated five days later (day fourteen), with no intervening drug treatment.
The time spent on days 9 and 14 (e.g. […] respectively after the last drug treatment) in the drug associated chamber was the test datum and is represented in FIG. 1. […] In contrast, there was no increase in the non-preferred chamber residence time when the least-preferred chamber was paired with saline, APAP or test compounds 2 or 28 on either days 9 or 14, or days 0 or 5.

| Structure (SMILES) | cumulative pain score, 4 h (male Sprague-Dawley rats; 10 mg/kg) | cumulative pain score, 24 h (male Sprague-Dawley rats; 10 mg/kg) | cumulative pain score, 4 h (male Sprague-Dawley rats; 30 mg/kg) | cumulative pain score, 24 h (male Sprague-Dawley rats; 30 mg/kg) | cumulative pain score, 4 h (male Sprague-Dawley rats; 100 mg/kg) | cumulative pain score, 24 h (male Sprague-Dawley rats; 100 mg/kg) | inhibition at 200 µM (COX-2) [%] | least preferred (drug associated) chamber residence time (adult male C57BL/6 mice) |
| --- | --- | --- | --- | --- | --- | --- | --- | --- |
| Cl.NC12CC(c3nc(C(F)(F)F)cs3)(C1)C2 [Compound 1, 3-(4-(Trifluoromethyl)thiazol-2-yl)bicyclo[1.1.1]pentan-1-amine hydrochloride] | C (>16) | B (>11 and ≤16) | A (a cumulative pain score of ≤11) | A (a cumulative pain score of ≤11) | A (a cumulative pain score of ≤11) | A (a cumulative pain score of ≤11) |  |  |
| Cc1sc(C23CC(N)(C2)C3)nc1C(F)(F)F.Cl [Compound 2, 3-(5-Methyl-4-(trifluoromethyl)thiazol-2-yl)bicyclo[1.1.1]pentan-1-amine hydrochloride] |  |  |  |  |  |  | -2 | no increase |
